Results taken from paper PMC11996864, “A small-molecule inhibitor of BCL10-MALT1 interaction abrogates progression of diffuse large B cell lymphoma” (The Journal of Clinical Investigation, 2025).
“And” between values parts separate entries of the source, which are not always exact repeats. Equal values may be shown once.

How the values were obtained:
[1] = system: MALT1 protein in DLBCL cells; parameters: method as in PMID 30024860, PMID 23238017; settings: result in words; cited from earlier work
INSR = target: T1, INSR (Homo sapiens, UniProt P06213); assay: SAFETYscan78 off-target screen; settings: off-target panel; read-out: EC50 or IC50, INSR
T1 construct: Eurofins SAFETYscan78
Text: (§1) We also tested for possible adverse actions of M1i-124 on cytochrome P450 (CYP) enzymes that might limit its use in vivo. The CYP family of enzymes are responsible for phase I metabolism of many drugs and endogenous substances, and their inhibition can lead to unanticipated toxicities. […] To further test for potential off-target effects of M1i-124, we conducted an in vitro safety pharmacology profiling screen that measures the ability of a candidate compound to inhibit 78 key GPCRs, ion channels, nuclear hormone receptors, neurotransmitter transporters, kinases, and non-kinase enzymes. […]
(§2) cological profile for M1i-124. EC50 or I C50 f or act i vi t y agai nst sel ect GPCRs, i on channel s, nucl ear hor mone r eceptor s, ki nases, and neur otr ansmi tter tr anspor ter s i n an off-target activity screen of M1i-124 (Eurofins SAFETYscan78). When unmeasurable, the EC50 or IC50 for an indicated target is listed as >10 […]
(§3) (1 picture or pasted object on this page, not shown here)

PDE4 = target: T2, PDE4 (Homo sapiens, UniProt Q08499); assay: SAFETYscan78 off-target screen; settings: off-target panel; read-out: EC50 or IC50, PDE4
T2 construct: Eurofins SAFETYscan78
Text: as §1, §2, §3

COX1/2 = assay: SAFETYscan78 off-target screen; settings: off-target panel; read-out: EC50 or IC50, COX1/2
Text: as §1, §2, §3

VEGFR2 = target: T3, VEGFR2 (Homo sapiens, UniProt P35968); assay: SAFETYscan78 off-target screen; settings: off-target panel; read-out: EC50 or IC50, VEGFR2
T3 construct: Eurofins SAFETYscan78
Text: as §1, §2, §3

ROCK1 = target: T4, ROCK1 (Homo sapiens, UniProt Q13464); assay: SAFETYscan78 off-target screen; settings: off-target panel; read-out: EC50 or IC50, ROCK1
T4 construct: Eurofins SAFETYscan78
Text: as §1, §2, §3

LCK = target: T5, LCK (Homo sapiens, UniProt P06239); assay: SAFETYscan78 off-target screen; settings: off-target panel; read-out: EC50 or IC50, LCK
T5 construct: Eurofins SAFETYscan78
Text: as §1, §2, §3

hERG = target: T6, hERG (Homo sapiens, UniProt Q12809); assay: SAFETYscan78 off-target screen; settings: off-target panel; read-out: EC50 or IC50, hERG
T6 construct: Eurofins SAFETYscan78
Text: as §1, §2, §3

OCI-Ly3 xenografts = assay: OCI-Ly3 xenograft in NSG mice; format: in vivo, mouse; settings: daily i.p., vs DMSO, result in words
Text: TMD8 cells were engrafted into 8-week-old female NOD.CB17-Prkdc^scid/J (NOD-SCID) mice from The Jackson Laboratory by subcutaneous injection of 10 × 10^6 cells resuspended in 50% Cultrex Basement Membrane Extract (R&D Systems, catalog 3632-010-02) into the right flank. OCI-Ly3 cells were engrafted into 5-week-old female NOD.Cg-Prkdc^scid Il2rg^tm1Wjl/SzJ (NSG) mice from The Jackson Laboratory by subcutaneous injection of 2.5 × 10^6 cells resuspended in Cultrex as above. OCI-Ly1 cells were engrafted into 6.5-week-old female NSG mice from The Jackson Laboratory by subcutaneous injection of 20 × 10^6 cells resuspended in Cultrex as above. For all xenograft models, when tumors reached an average volume of 100 mm^3, mice were randomized to receive M1i-124 (50 mg/kg i.p. per day), or equivalent volume of DMSO vehicle (50 μL i.p. per day). […] Tumor size was measured 3 times a week using a caliper and calculated using the formula (smallest diameter^2 × largest diameter)/2. Mice were sacrificed 24 hours after the last injection. Mice were sacrificed when the largest tumors reached 2,500 mm^3. For TMD8 xenograft experiments, tumors and various organs, including lung, heart, liver, and kidney, were collected and fixed in 10% buffered formalin, embedded in FFPE blocks, sectioned, and stained with H&E. Sections were evaluated by a board-certified pathologist.

BJAB cells = assay: Apoptosis, annexin staining flow cytometry; format: cell-based, human
OCI-Ly3 cells = assay: CellTiter-Glo ATP viability; format: cell-based, human
Description: Cell proliferation, viability, and apoptosis assays. […]
Fluorescent Intensity (MFI) was analyzed by FlowJo (version 10.8.0, BD). CellTiter-glo luminescence assay (Promega, Cat# G7570) was used to quantify ATP levels as a surrogate marker of metabolic viability in DLBCL cells treated with compounds for 6-8 days. […]
The percentages of cells in early and late apoptosis were combined for quantification. For CellTrace Violet, CellTiter-glo, and Annexin V apoptosis assays, cell were cultured in media with 50% of the usual serum. […]

C57BL/6 mice = assay: Long-term (28 days) in vivo toxicity; parameters: species or system mouse
Description: Long-term in vivo toxicity experiments. WT C57/BL6 (The Jackson Laboratory) male and female mice were treated daily with 50 mg/kg M1i-124 or vehicle control for 28 days. At the time of sacrifice, blood was obtained for complete blood count, alanine transaminase, albumin, and total bilirubin (Abaxis). Livers from control and M1i-124 treated mice were collected for H&E analysis. […]

[2] = 28 days, vs control, result in words

T1 sequence (P06213 28-1382): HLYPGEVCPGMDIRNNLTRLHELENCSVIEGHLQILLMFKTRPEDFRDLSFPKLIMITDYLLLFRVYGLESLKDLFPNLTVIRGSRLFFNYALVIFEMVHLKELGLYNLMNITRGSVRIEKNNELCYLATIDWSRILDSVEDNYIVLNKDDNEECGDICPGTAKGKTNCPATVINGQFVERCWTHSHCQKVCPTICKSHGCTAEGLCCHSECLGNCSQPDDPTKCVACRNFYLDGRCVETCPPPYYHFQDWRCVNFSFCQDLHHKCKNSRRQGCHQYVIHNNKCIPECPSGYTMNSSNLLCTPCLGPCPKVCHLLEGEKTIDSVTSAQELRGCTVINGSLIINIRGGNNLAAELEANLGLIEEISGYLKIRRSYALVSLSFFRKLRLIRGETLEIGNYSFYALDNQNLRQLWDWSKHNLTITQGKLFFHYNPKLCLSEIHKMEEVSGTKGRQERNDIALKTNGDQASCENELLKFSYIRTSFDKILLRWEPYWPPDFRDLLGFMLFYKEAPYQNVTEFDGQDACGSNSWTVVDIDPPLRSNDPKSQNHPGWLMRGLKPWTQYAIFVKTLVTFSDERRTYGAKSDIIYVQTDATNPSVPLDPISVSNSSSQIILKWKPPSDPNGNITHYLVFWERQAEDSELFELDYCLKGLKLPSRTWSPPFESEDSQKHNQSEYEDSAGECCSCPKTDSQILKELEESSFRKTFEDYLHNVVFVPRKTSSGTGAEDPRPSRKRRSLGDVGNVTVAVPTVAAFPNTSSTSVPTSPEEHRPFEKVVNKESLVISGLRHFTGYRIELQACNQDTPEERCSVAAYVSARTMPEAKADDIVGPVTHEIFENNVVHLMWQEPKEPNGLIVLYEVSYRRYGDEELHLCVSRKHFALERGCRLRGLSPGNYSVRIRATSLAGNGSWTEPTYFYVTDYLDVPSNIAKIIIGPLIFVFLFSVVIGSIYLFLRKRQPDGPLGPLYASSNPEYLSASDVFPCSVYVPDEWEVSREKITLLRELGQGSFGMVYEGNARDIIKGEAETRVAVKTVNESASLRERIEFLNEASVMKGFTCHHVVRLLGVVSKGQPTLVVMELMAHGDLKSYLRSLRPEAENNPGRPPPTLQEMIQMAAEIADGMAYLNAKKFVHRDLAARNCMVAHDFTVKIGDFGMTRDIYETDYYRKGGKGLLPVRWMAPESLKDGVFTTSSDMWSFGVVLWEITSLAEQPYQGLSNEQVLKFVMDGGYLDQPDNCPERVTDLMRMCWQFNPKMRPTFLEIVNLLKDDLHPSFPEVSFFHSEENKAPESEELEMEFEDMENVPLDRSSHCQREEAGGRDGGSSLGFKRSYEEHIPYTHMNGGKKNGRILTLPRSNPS
T4 sequence (Q13464 whole entry): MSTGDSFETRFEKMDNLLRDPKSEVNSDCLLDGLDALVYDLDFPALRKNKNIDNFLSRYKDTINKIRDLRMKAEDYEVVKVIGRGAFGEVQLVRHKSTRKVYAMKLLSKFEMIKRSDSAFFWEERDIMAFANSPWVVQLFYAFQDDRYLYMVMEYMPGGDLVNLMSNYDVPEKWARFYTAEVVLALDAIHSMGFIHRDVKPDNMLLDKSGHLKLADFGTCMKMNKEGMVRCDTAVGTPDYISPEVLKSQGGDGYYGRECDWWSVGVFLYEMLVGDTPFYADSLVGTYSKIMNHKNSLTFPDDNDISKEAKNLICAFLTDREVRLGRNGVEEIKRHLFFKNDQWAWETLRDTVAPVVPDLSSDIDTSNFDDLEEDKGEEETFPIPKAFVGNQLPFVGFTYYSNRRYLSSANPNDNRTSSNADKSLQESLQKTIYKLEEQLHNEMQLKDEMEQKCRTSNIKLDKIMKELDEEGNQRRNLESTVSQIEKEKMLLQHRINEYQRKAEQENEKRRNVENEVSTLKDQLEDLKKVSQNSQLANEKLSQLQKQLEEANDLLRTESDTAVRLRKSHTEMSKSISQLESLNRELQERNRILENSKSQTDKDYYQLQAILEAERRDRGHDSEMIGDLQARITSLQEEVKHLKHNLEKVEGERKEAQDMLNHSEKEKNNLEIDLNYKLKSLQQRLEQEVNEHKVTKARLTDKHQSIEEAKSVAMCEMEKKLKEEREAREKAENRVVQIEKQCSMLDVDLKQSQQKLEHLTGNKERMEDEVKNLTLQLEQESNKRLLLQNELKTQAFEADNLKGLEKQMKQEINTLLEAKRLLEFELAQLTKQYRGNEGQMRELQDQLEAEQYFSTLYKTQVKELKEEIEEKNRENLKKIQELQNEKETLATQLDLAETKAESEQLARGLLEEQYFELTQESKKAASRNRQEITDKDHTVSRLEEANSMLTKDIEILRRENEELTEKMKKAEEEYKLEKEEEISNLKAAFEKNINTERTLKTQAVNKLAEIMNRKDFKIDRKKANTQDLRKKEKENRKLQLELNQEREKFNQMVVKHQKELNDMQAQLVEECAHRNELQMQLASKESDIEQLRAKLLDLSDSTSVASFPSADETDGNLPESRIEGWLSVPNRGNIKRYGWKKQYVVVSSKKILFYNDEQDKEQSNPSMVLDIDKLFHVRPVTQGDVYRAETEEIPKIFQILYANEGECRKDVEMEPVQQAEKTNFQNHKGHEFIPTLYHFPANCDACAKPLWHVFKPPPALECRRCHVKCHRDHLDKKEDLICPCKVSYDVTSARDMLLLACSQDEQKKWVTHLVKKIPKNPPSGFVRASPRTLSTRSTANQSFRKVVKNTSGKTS
T2 sequence (Q08499 303-809 limits assumed): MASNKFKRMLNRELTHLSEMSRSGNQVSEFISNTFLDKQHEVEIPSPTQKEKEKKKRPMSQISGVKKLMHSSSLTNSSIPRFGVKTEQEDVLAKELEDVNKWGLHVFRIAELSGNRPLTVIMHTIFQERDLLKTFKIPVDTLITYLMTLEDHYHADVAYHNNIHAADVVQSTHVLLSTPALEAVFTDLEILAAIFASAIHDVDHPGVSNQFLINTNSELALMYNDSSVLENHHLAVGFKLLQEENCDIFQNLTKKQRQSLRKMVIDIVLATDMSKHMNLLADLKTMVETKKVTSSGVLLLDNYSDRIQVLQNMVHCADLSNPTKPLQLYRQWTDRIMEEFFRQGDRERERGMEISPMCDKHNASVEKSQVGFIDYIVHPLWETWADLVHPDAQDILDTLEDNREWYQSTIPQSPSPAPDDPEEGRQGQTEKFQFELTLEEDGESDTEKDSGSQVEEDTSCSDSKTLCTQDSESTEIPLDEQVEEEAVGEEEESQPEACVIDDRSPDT
T5 sequence (P06239 whole entry): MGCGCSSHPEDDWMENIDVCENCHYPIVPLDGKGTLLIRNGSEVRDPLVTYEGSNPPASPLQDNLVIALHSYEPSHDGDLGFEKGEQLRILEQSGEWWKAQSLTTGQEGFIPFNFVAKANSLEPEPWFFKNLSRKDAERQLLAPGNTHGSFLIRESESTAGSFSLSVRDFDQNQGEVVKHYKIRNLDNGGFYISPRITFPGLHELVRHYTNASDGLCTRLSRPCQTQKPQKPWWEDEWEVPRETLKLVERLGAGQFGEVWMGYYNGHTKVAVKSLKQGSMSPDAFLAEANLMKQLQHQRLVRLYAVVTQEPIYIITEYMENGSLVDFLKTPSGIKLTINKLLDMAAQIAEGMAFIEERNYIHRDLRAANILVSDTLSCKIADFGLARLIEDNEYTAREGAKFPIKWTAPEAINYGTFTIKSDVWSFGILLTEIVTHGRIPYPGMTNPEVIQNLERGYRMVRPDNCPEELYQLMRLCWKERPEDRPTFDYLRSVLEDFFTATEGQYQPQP
T6 sequence (Q12809 whole entry): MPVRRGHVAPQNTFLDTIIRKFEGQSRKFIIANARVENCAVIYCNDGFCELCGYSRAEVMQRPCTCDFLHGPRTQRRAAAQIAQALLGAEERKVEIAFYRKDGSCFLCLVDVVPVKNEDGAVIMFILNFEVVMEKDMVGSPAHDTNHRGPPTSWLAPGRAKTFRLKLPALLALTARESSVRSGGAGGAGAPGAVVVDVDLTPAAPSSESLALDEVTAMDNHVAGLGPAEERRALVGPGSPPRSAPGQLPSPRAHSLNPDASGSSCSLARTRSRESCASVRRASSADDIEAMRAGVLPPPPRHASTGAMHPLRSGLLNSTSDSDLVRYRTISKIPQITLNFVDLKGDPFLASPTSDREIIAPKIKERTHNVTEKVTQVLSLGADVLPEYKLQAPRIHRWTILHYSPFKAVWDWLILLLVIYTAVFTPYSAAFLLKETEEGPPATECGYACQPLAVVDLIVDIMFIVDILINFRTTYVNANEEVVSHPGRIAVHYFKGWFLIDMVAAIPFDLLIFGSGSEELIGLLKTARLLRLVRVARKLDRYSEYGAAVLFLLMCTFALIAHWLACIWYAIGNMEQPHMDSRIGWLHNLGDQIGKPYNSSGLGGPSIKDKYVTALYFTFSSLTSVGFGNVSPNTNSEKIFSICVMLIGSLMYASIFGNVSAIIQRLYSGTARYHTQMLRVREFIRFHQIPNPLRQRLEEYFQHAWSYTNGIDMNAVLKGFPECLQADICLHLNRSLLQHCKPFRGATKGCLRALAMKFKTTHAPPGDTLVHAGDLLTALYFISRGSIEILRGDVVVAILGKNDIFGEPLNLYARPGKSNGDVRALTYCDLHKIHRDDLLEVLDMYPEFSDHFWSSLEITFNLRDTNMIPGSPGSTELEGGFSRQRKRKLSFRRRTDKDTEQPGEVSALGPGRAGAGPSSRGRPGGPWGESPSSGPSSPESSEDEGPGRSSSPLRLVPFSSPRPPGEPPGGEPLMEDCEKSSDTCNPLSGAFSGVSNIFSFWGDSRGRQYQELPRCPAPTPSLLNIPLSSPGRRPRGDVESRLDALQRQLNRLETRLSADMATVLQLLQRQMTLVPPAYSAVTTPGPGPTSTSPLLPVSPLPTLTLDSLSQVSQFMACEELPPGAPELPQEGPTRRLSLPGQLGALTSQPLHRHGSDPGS

## CN1CCCC(CN2c3ccccc3Sc3ccccc32)C1 (stereo not shown) [Mepazine, mepazine, reference compound]
[1]
  MALT1 protein level: unaffected

## O=S(=O)(NCc1ccc2c(c1)OCO2)c1ccc(Cc2ccc(S(=O)(=O)NCc3ccc4c(c3)OCO4)cc2)cc1 [M1i-124]
INSR
  IC50: > 10 µM
PDE4
  IC50: > 10 µM
COX1/2
  IC50: > 10 µM
VEGFR2
  IC50: > 10 µM
ROCK1
  IC50: > 10 µM
LCK
  IC50: > 10 µM
hERG
  IC50: > 10 µM
OCI-Ly3 xenografts
  OCI-Ly3 xenograft tumor growth: significant decrease in tumor growth
BJAB cells; BJAB, individual replicates
  Annexin (% positivity): 34.8% and 31.55% and 33.15%
BJAB cells; result in words
  apoptosis of BJAB cells: either no or minimal apoptotic response
OCI-Ly3 cells; Homo sapiens, OCI-Ly3 cells, read-out: 50% cytotoxic concentration
  IC50: ~0.5 µM
OCI-Ly3 cells; OCI-Ly3, M1i-124 (µM) 0.02
  Percent viability (ATP level): 93.0259% and 81.697% and 95.3842% and 87.3232%
OCI-Ly3 cells; OCI-Ly3, M1i-124 (µM) 0.05
  Percent viability (ATP level): 107.435% and 78.839% and 101.939% and 104.596%
OCI-Ly3 cells; OCI-Ly3, M1i-124 (µM) 0.1
  Percent viability (ATP level): 97.8481% and 79.4097% and 92.5817% and 82.7797%
OCI-Ly3 cells; OCI-Ly3, M1i-124 (µM) 0.2
  Percent viability (ATP level): 93.5879% and 72.4634% and 88.6927% and 76.6947%
OCI-Ly3 cells; OCI-Ly3, M1i-124 (µM) 5
  Percent viability (ATP level): 38.3426% and 24.1881% and 19.3497% and 28.4648%
OCI-Ly3 cells; result in words
  viability of OCI-Ly3 cells: dose-dependent decrease in viability
C57BL/6 mice; 28 days, result in words
  Albumin: decrease in albumin
  alanine transaminase or total bilirubin: did not result in a change
  liver histology (H&E): no appreciable difference
C57BL/6 mice; [2]
  blood counts (white blood cell count, hemoglobin, platelet count): did not result in a statistically significant change
  change in weight: did not result in a statistically significant change
C57BL/6 mice; C57BL/6 mice, 50 mg/kg daily, 28 days, 50 mg/kg
  % change in body weight: 9.778% and 0% and 8.3% and 7.514% and 2.89% and 0.5714% and 7.273% and 4.7619%
C57BL/6 mice; individual mice
  ALT: 35 U/L and 100 U/L and 26 U/L and 120 U/L and 180 U/L and 125 U/L
  Albumin: 3.5 g/dL and 2.5 g/dL and 2.1 g/dL and 1.9 g/dL and 3.2 g/dL
  Hemoglobin: 13.2 g/dL and 10.9 g/dL and 13.7 g/dL and 12.6 g/dL and 14 g/dL and 12 g/dL and 10.3 g/dL and 11.3 g/dL and 12.9 g/dL
  Platelets: 439 10^9/L and 412 10^9/L and 524 10^9/L and 394 10^9/L and 557 10^9/L and 522 10^9/L and 479 10^9/L and 381 10^9/L and 186 10^9/L
  Total Bilirubin: 0.3 mg/dL and 0.4 mg/dL and 0.2 mg/dL
  WBC: 8.15 10^9/L and 3.97 10^9/L and 4.01 10^9/L and 2.58 10^9/L and 5.28 10^9/L and 4.82 10^9/L and 3.12 10^9/L and 3.23 10^9/L and 1.49 10^9/L
C57BL/6 mice; result in words
  in vivo tolerability: well tolerated with minimal toxicity
